# From ChEMBL document CHEMBL4130493, “An insight into the biological activities of heterocyclic-fatty acid hybrid molecules” (Eur J Med Chem, 2017)
# Key:
# Pseudomonas aeruginosa [1] = experiment: Antibacterial activity against Pseudomonas aeruginosa MTCC 2453 incubated for 24 hrs by serial two-fold dilution method; type: functional; settings: MTCC 2453, 24 h
# Escherichia coli [2] = experiment: Antibacterial activity against Escherichia coli MTCC 40 incubated for 24 hrs by serial two-fold dilution method; type: functional; settings: MTCC 40, 24 h
# Pseudomonas aeruginosa [3] = experiment: Antibacterial activity against Pseudomonas aeruginosa incubated for 24 hrs by filter paper disc method; type: functional
# Staphylococcus aureus [4] = experiment: Antibacterial activity against Staphylococcus aureus MSSA 22 incubated for 24 hrs by filter paper disc method; type: functional
# Escherichia coli [5] = experiment: Antibacterial activity against Escherichia coli K-12 incubated for 24 hrs by filter paper disc method; type: functional
# Bacillus subtilis [6] = experiment: Antibacterial activity against Bacillus subtilis MTCC 121 incubated for 24 hrs by filter paper disc method; type: functional
# A549 = experiment: Cytotoxicity in human A549 cells by SRB assay; type: functional; settings: read-out: TC50 (the source's name)
# Hep 3B2 = experiment: Cytotoxicity in human Hep3B cells incubated for 48 hrs by MTT assay; type: functional, cell-based
# Salmonella typhimurium = experiment: Antibacterial activity against Salmonella typhimurium MTCC98 at 100 ug/mL incubated for 24 hrs by filter paper disc method; type: functional, Salmonella enterica subsp. enterica serovar Typhimurium; settings: Salmonella enterica, MTCC98, 24 h; read-out: DIZ
# Bacillus subtilis [7] = experiment: Antibacterial activity against Bacillus subtilis ATCC 6051 at 100 ug/mL incubated for 24 hrs by filter paper disc method; type: functional; settings: ATCC 6051, 24 h, read-out: DIZ
# Staphylococcus aureus [8] = experiment: Antibacterial activity against Staphylococcus aureus MSSA 22 at 100 ug/mL incubated for 24 hrs by filter paper disc method; type: functional; settings: MSSA 22, 24 h, read-out: DIZ
# Escherichia coli [9] = experiment: Antibacterial activity against Escherichia coli K-12 at 100 ug/mL incubated for 24 hrs by filter paper disc method; type: functional; settings: K-12, 24 h, read-out: DIZ
# Candida albicans [10] = experiment: Antifungal activity against Candida albicans IOA-109 at 100 ug/mL incubated for 18 to 48 hrs by agar disc diffusion method; type: functional; settings: read-out: DIZ
# Candida albicans [11] = experiment: Antifungal activity against Candida albicans IOA-109 at 50 ug/disc incubated for 5 to 6 days by disc diffusion method; type: functional; settings: read-out: DIZ
# Plasmodium falciparum = experiment: Antimalarial activity against Plasmodium falciparum infected in erythrocytes assessed as inhibition of increase in parasite density after 72 hrs; type: functional, organism-based
# Candida albicans [12] = experiment: Antifungal activity against Candida albicans IOA-109 incubated for 18 to 48 hrs; type: functional
# Klebsiella pneumoniae = experiment: Antibacterial activity against Klebsiella pneumoniae incubated for 24 hrs by filter paper disc method; type: functional
smiles,measurement,setting,value
CCCCCCCCCCCCCC(=O)NN1C(=O)CSC1c1ccc(C)cc1 (stereo unspecified),MIC,Pseudomonas aeruginosa [1],0.35 to 0.7 µg/mL
same,MIC,Escherichia coli [2],0.35 to 0.7 µg/mL
CCCCCCCCCCCCCCCC(=O)NN1C(=O)CSC1c1ccc([N+](=O)[O-])cc1 (stereo unspecified),MIC,Pseudomonas aeruginosa [1],0.35 to 0.7 µg/mL
same,MIC,Escherichia coli [2],0.35 to 0.7 µg/mL
CCCCCCCCCCCCCC(=O)NN1C(=O)CSC1c1ccc([N+](=O)[O-])cc1 (stereo unspecified),MIC,Pseudomonas aeruginosa [1],0.35 to 0.7 µg/mL
same,MIC,Escherichia coli [2],0.35 to 0.7 µg/mL
CCCCCCC(O)C/C=C\CCCCCCC(=O)N1N=C(C)CC1=O (stereo unspecified),diameter of the inhibition zone (DIZ),Pseudomonas aeruginosa [3],10 - 18 mm
same,diameter of the inhibition zone (DIZ),Staphylococcus aureus [4],10 - 18 mm
same,diameter of the inhibition zone (DIZ),Escherichia coli [5],10 - 18 mm
same,diameter of the inhibition zone (DIZ),Bacillus subtilis [6],10 - 18 mm
CCCCCCCCCCCCCCCC(=O)NN1C(=O)CSC1c1ccc(Br)cc1 (stereo unspecified),MIC,Pseudomonas aeruginosa [1],0.35 to 0.7 µg/mL
same,MIC,Escherichia coli [2],0.35 to 0.7 µg/mL
CC/C=C\C/C=C\C/C=C\CCCCCCCc1nnc(S)o1,CC50,A549,149 nM
C=CCCCCCCCCc1n[nH]c(=S)n1N,IC50,Hep 3B2,9.2 µM
CCCCCCCCCCCCCCCCCc1nc(-c2ccccc2)n[nH]1,zone of inhibition at 100 µg/mL,Salmonella typhimurium,13.1 to 22.2 mm
same,zone of inhibition at 100 µg/mL,Bacillus subtilis [7],13.1 to 22.2 mm
same,zone of inhibition at 100 µg/mL,Staphylococcus aureus [8],13.1 to 22.2 mm
same,zone of inhibition at 100 µg/mL,Escherichia coli [9],13.1 to 22.2 mm
same,zone of inhibition at 100 µg/mL,Candida albicans [10],17.2 to 19 mm
C=CCCCCCCCCc1n[nH]c(=S)o1,IC50,Hep 3B2,8.94 µM
CCCCC/C=C\CCC(O)CCCCCCCc1nc(-c2cccc(O)c2)n[nH]1 (stereo unspecified),zone of inhibition at 100 µg/mL,Salmonella typhimurium,13.1 to 22.2 mm
same,zone of inhibition at 100 µg/mL,Bacillus subtilis [7],13.1 to 22.2 mm
same,zone of inhibition at 100 µg/mL,Staphylococcus aureus [8],13.1 to 22.2 mm
same,zone of inhibition at 100 µg/mL,Escherichia coli [9],13.1 to 22.2 mm
same,zone of inhibition at 100 µg/mL,Candida albicans [10],17.2 to 19 mm
CCCCCCCC/C=C\C(O)CCCCCCC(=O)n1nnc2ccccc21 (stereo unspecified),zone of inhibition at 50 µg/disc,Candida albicans [11],16 to 20 mm
CCCCCCCCCCCCCC(=O)NN1C(=O)CSC1c1ccc(O)cc1 (stereo unspecified),MIC,Pseudomonas aeruginosa [1],0.35 to 0.7 µg/mL
same,MIC,Escherichia coli [2],0.35 to 0.7 µg/mL
C=C[C@H]1CN2CC[C@H]1C[C@H]2[C@H](OCCCCCCCC/C=C\C/C=C\C/C=C\CC)c1ccnc2ccc(OC)cc12,EC50,Plasmodium falciparum,7 to 20 µM
CCCCCCCCCCCCCCCC(=O)NN1C(=O)CSC1c1ccc(C)cc1 (stereo unspecified),MIC,Pseudomonas aeruginosa [1],0.35 to 0.7 µg/mL
same,MIC,Escherichia coli [2],0.35 to 0.7 µg/mL
CCCCCCCC(O)CC/C=C\CCCCC(=O)n1[nH]c(=O)c2ccccc2c1=O (stereo unspecified),diameter of the inhibition zone (DIZ),Pseudomonas aeruginosa [3],10 - 18 mm
same,diameter of the inhibition zone (DIZ),Staphylococcus aureus [4],10 - 18 mm
same,diameter of the inhibition zone (DIZ),Escherichia coli [5],15 - 18 mm
same,diameter of the inhibition zone (DIZ),Bacillus subtilis [6],10 - 18 mm
CCCCCCC(O)C/C=C\CCCCCCC(=O)Nn1c(C)ccc1C (stereo unspecified),diameter of the inhibition zone (DIZ),Candida albicans [12],17 - 20 mm
same,diameter of the inhibition zone (DIZ),Staphylococcus aureus [4],15 - 19 mm
same,diameter of the inhibition zone (DIZ),Escherichia coli [5],15 - 19 mm
same,diameter of the inhibition zone (DIZ),Klebsiella pneumoniae,15 - 19 mm
same,diameter of the inhibition zone (DIZ),Bacillus subtilis [6],15 - 19 mm
CCCCC/C=C\CCC(O)CCCCCCCc1nc(-c2ccccc2)n[nH]1 (stereo unspecified),zone of inhibition at 100 µg/mL,Salmonella typhimurium,13.1 to 22.2 mm
same,zone of inhibition at 100 µg/mL,Bacillus subtilis [7],13.1 to 22.2 mm
same,zone of inhibition at 100 µg/mL,Staphylococcus aureus [8],13.1 to 22.2 mm
same,zone of inhibition at 100 µg/mL,Escherichia coli [9],13.1 to 22.2 mm
same,zone of inhibition at 100 µg/mL,Candida albicans [10],17.2 to 19 mm
CCCCCCC(O)C/C=C\CCCCCCCc1nc(-c2ccc(O)c(O)c2)n[nH]1 (stereo unspecified),zone of inhibition at 100 µg/mL,Salmonella typhimurium,13.1 to 22.2 mm
same,zone of inhibition at 100 µg/mL,Bacillus subtilis [7],13.1 to 22.2 mm
same,zone of inhibition at 100 µg/mL,Staphylococcus aureus [8],13.1 to 22.2 mm
same,zone of inhibition at 100 µg/mL,Escherichia coli [9],13.1 to 22.2 mm
same,zone of inhibition at 100 µg/mL,Candida albicans [10],17.2 to 19 mm
CCCCCCCCCCCCCC(=O)NN1C(=O)CSC1c1ccc(Cl)cc1 (stereo unspecified),MIC,Pseudomonas aeruginosa [1],0.35 to 0.7 µg/mL
same,MIC,Escherichia coli [2],0.35 to 0.7 µg/mL
C=C[C@H]1CN2CC[C@H]1C[C@H]2[C@H](O/C=C/C=C/C=C/C=C/C=C/C=C/CCCCCCCCCC)c1ccnc2ccc(OC)cc12,EC50,Plasmodium falciparum,7 to 20 µM
CCCCCCCC/C=C\CCCCCCCc1nc(-c2ccccc2)n[nH]1,zone of inhibition at 100 µg/mL,Salmonella typhimurium,13.1 to 22.2 mm
same,zone of inhibition at 100 µg/mL,Bacillus subtilis [7],13.1 to 22.2 mm
same,zone of inhibition at 100 µg/mL,Staphylococcus aureus [8],13.1 to 22.2 mm
same,zone of inhibition at 100 µg/mL,Escherichia coli [9],13.1 to 22.2 mm
same,zone of inhibition at 100 µg/mL,Candida albicans [10],17.2 to 19 mm
CCCCCCCC/C=C\CCCCCCCc1nc(-c2cccc(O)c2)n[nH]1,zone of inhibition at 100 µg/mL,Salmonella typhimurium,13.1 to 22.2 mm
same,zone of inhibition at 100 µg/mL,Bacillus subtilis [7],13.1 to 22.2 mm
same,zone of inhibition at 100 µg/mL,Staphylococcus aureus [8],13.1 to 22.2 mm
same,zone of inhibition at 100 µg/mL,Escherichia coli [9],13.1 to 22.2 mm
same,zone of inhibition at 100 µg/mL,Candida albicans [10],17.2 to 19 mm
C=C[C@H]1CN2CC[C@H]1C[C@H]2[C@H](OCCCCCCCCCCCCCCCCCC)c1ccnc2ccc(OC)cc12,EC50,Plasmodium falciparum,7 to 20 µM
CCCCCCCCCCCCCCCC(=O)NN1C(=O)CSC1c1ccc(O)cc1 (stereo unspecified),MIC,Pseudomonas aeruginosa [1],0.35 to 0.7 µg/mL
same,MIC,Escherichia coli [2],0.35 to 0.7 µg/mL
CCCCCCCC/C=C\CCCCCCCc1nc(-c2ccc(O)c(O)c2)n[nH]1,zone of inhibition at 100 µg/mL,Salmonella typhimurium,13.1 to 22.2 mm
same,zone of inhibition at 100 µg/mL,Bacillus subtilis [7],13.1 to 22.2 mm
same,zone of inhibition at 100 µg/mL,Staphylococcus aureus [8],13.1 to 22.2 mm
same,zone of inhibition at 100 µg/mL,Escherichia coli [9],13.1 to 22.2 mm
same,zone of inhibition at 100 µg/mL,Candida albicans [10],17.2 to 19 mm
CCCCCCC(O)C/C=C\CCCCCCc1nc2ccccc2c(=O)o1 (stereo unspecified),diameter of the inhibition zone (DIZ),Candida albicans [12],17 - 20 mm
same,diameter of the inhibition zone (DIZ),Staphylococcus aureus [4],15 - 19 mm
same,diameter of the inhibition zone (DIZ),Escherichia coli [5],15 - 19 mm
same,diameter of the inhibition zone (DIZ),Klebsiella pneumoniae,15 - 19 mm
same,diameter of the inhibition zone (DIZ),Bacillus subtilis [6],15 - 19 mm
